Measurements reported in PubChem BioAssay (NCI).
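Exposure lasted 48 hours, with cells grown in 96-well plates and compounds tested at five concentrations. Abbreviation: GI50, concentration required for 50% inhibition of growth. The concentration for full growth arrest is given as TGI.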

Legend:
Assay in all cases: NCI tumour cell line growth inhibition, 48 h
786-0 renal = system: 786-0 renal
COLO 205 colon = system: COLO 205 colon
HCT-15 colon = system: HCT-15 colon
HOP-62 NSCLC = system: HOP-62 NSCLC
HS 578T breast = system: HS 578T breast
HT29 colon = system: HT29 colon
SF-295 CNS = system: SF-295 CNS
DLD-1 colon = system: DLD-1 colon
M19-MEL melanoma = system: M19-MEL melanoma
NCI-H460 lung = system: NCI-H460 lung
HOP-18 NSCLC = system: HOP-18 NSCLC
KM20L2 colon = system: KM20L2 colon
P388 leukemia = system: P388 leukemia
P388/ADR leukemia = system: P388/ADR leukemia

CC(C)CC1c2[nH]c3ccccc3c2C[C@H]2C(=O)NC(CCC(=O)OC(C)(C)C)C(=O)N12 (stereo partly specified)
TGI (786-0 renal): > 100 µM
TGI (COLO 205 colon): 39.6 µM
TGI (HCT-15 colon): > 100 µM
TGI (HOP-62 NSCLC): 56.2 µM
TGI (HS 578T breast): 54.2 µM
TGI (HT29 colon): 43.1 µM
TGI (SF-295 CNS): 41.1 µM

O=S(O)c1cc(Cl)cc(Cl)c1O
TGI (DLD-1 colon): > 100 µM
TGI (HOP-62 NSCLC): > 100 µM
TGI (HT29 colon): > 100 µM
TGI (M19-MEL melanoma): > 100 µM
TGI (NCI-H460 lung): > 100 µM

COc1cc(-c2coc3c(OC)c(OC4OC(CO)C(O)C(O)C4O)c(OC)cc3c2=O)cc(OC)c1C (stereo unspecified)
TGI (786-0 renal): > 100 µM
TGI (COLO 205 colon): > 54.2 µM
TGI (HCT-15 colon): 19.6 µM
TGI (HOP-62 NSCLC): 44.1 µM
TGI (HS 578T breast): 15.4 µM
TGI (HT29 colon): 35.1 µM
TGI (NCI-H460 lung): > 70.1 µM
TGI (SF-295 CNS): 28.5 µM

C[C@]12CC(c3ccccc3O1)C(C(=O)NC13CC4CC(CC(C4)C1)C3)C(=O)N2 (stereo partly specified)
TGI (786-0 renal): 40.8 µM
TGI (COLO 205 colon): 31.7 µM
TGI (HCT-15 colon): 60.8 µM
TGI (HOP-62 NSCLC): > 100 µM
TGI (HS 578T breast): > 100 µM
TGI (HT29 colon): 30.8 µM
TGI (NCI-H460 lung): > 100 µM
TGI (SF-295 CNS): > 100 µM

CC(=O)OCC1OC(O[C@@H]2c3c(O)c4c(c(O)c3C3=C(NN(c5ccc([N+](=O)[O-])cc5[N+](=O)[O-])[Se]3=O)[C@@]2(C)O)C(=O)c2ccccc2C4=O)C(OC(C)=O)C(OC(C)=O)C1OC(C)=O (stereo partly specified)
TGI (786-0 renal): 0.296 µM
TGI (COLO 205 colon): 0.322 µM
TGI (HCT-15 colon): 0.873 µM
TGI (HOP-62 NSCLC): 0.714 µM
TGI (HS 578T breast): 0.927 µM
TGI (HT29 colon): 0.57 µM
TGI (NCI-H460 lung): 0.72 µM
TGI (SF-295 CNS): 1 µM

N#C/C=C1\C=CC(O)C(O)C1OC1OC(CO)C(O)C(O)C1O (stereo unspecified)
TGI (786-0 renal): > 100 µM
TGI (COLO 205 colon): > 100 µM
TGI (HCT-15 colon): > 100 µM
TGI (HOP-62 NSCLC): > 100 µM
TGI (HS 578T breast): > 100 µM
TGI (HT29 colon): > 100 µM
TGI (NCI-H460 lung): > 100 µM
TGI (SF-295 CNS): > 100 µM

O=C(O)C1CC(c2ccccc2)=NN1c1ccccc1 (stereo unspecified)
TGI (786-0 renal): > 100 µM
TGI (COLO 205 colon): > 100 µM
TGI (HCT-15 colon): > 100 µM
TGI (HOP-62 NSCLC): > 100 µM
TGI (HS 578T breast): 81.6 µM
TGI (HT29 colon): > 100 µM
TGI (NCI-H460 lung): > 100 µM
TGI (SF-295 CNS): > 100 µM

CC1(C)COC(/C=C/C2=NC(C)(C)CO2)=N1
TGI (COLO 205 colon): 28.6 µM
TGI (HCT-15 colon): 34.5 µM
TGI (HOP-62 NSCLC): 55.2 µM
TGI (HS 578T breast): 23.1 µM
TGI (HT29 colon): 98.4 µM
TGI (NCI-H460 lung): > 100 µM
TGI (SF-295 CNS): > 100 µM

c1ccc2sc(C3(N4CCCCC4)CCCC3)cc2c1
TGI (786-0 renal): 28.9 µM
TGI (COLO 205 colon): 19.8 µM
TGI (HCT-15 colon): 21.6 µM
TGI (HOP-62 NSCLC): 28.8 µM
TGI (HS 578T breast): 33.4 µM
TGI (HT29 colon): 13.5 µM
TGI (NCI-H460 lung): 20.7 µM
TGI (SF-295 CNS): 23.7 µM

C=C1C(=O)OC2C1C(OC(=O)/C(C)=C/C)CC1(C)C(=O)CCC(=C)C21 (stereo unspecified)
TGI (786-0 renal): 20.9 µM
TGI (COLO 205 colon): 20.3 µM
TGI (HCT-15 colon): 10.3 µM
TGI (HOP-62 NSCLC): 30.5 µM
TGI (HS 578T breast): 78 µM
TGI (HT29 colon): 22 µM
TGI (NCI-H460 lung): > 52.8 µM
TGI (SF-295 CNS): 35.8 µM

COC(=O)C1=CC[C@@H]2C(C(=O)O)=CO[C@@H](OC3OC(CO)C(O)C(O)C3O)[C@H]12 (stereo partly specified)
TGI (COLO 205 colon): > 300 µM
TGI (DLD-1 colon): > 189 µM
TGI (HCT-15 colon): > 300 µM
TGI (HOP-18 NSCLC): > 300 µM
TGI (HOP-62 NSCLC): > 300 µM
TGI (HT29 colon): > 300 µM
TGI (KM20L2 colon): > 300 µM
TGI (M19-MEL melanoma): > 300 µM
TGI (NCI-H460 lung): > 300 µM
TGI (P388 leukemia): > 300 µM
TGI (P388/ADR leukemia): > 139 µM
TGI (SF-295 CNS): > 193 µM

Fc1ccc(-c2ccc(-c3nnc(-c4cc(F)c(Cl)cc4Cl)o3)o2)cc1Cl
GI50 (COLO 205 colon): 18.8 µM
TGI (COLO 205 colon): 42.8 µM
GI50 (HCT-15 colon): 27.6 µM
TGI (HCT-15 colon): > 100 µM
GI50 (HS 578T breast): 22.3 µM
TGI (HS 578T breast): 67.6 µM
GI50 (HT29 colon): 22.7 µM
TGI (HT29 colon): 50.9 µM
GI50 (NCI-H460 lung): 29.7 µM
TGI (NCI-H460 lung): > 100 µM
GI50 (SF-295 CNS): 30.2 µM
TGI (SF-295 CNS): > 100 µM

O=S(=O)(c1ccc(I)cc1)N(c1ccccc1)S(=O)(=O)C(F)(F)C(F)(F)C(F)(F)C(F)(F)F
TGI (786-0 renal): > 100 µM
TGI (COLO 205 colon): > 100 µM
TGI (HCT-15 colon): > 100 µM
TGI (HOP-62 NSCLC): 66.6 µM
TGI (HS 578T breast): 99.5 µM
TGI (HT29 colon): 51.2 µM
TGI (NCI-H460 lung): > 100 µM
TGI (SF-295 CNS): 71.8 µM

[C-]#[O+].[C-]#[O+].[Ir].[O-]c1cccc2cccnc12
GI50 (COLO 205 colon): > 100 µM
TGI (COLO 205 colon): > 100 µM
TGI (DLD-1 colon): > 100 µM
GI50 (HCT-15 colon): > 100 µM
TGI (HCT-15 colon): > 100 µM
TGI (HOP-18 NSCLC): > 100 µM
GI50 (HT29 colon): > 100 µM
TGI (HT29 colon): > 100 µM
GI50 (NCI-H460 lung): > 100 µM
TGI (NCI-H460 lung): > 100 µM
GI50 (SF-295 CNS): > 100 µM
TGI (SF-295 CNS): > 100 µM

CCOC(=O)n1cncc1CC(NC(=O)Cc1c(C(=O)C=C(C)C)[nH]c2ccccc12)C(=O)OC (stereo unspecified)
TGI (786-0 renal): 55.5 µM
TGI (COLO 205 colon): 41 µM
TGI (HCT-15 colon): 59.6 µM
TGI (HS 578T breast): 65.9 µM
TGI (HT29 colon): 66.6 µM
TGI (NCI-H460 lung): 58 µM
TGI (SF-295 CNS): 35.5 µM

COc1cccc(-c2nc3c(C(=O)NCCN(C)C)cccc3[nH]2)c1
TGI (COLO 205 colon): 23.1 µM
TGI (DLD-1 colon): 63.1 µM
TGI (HCT-15 colon): 41.6 µM
TGI (HOP-18 NSCLC): 62.6 µM
TGI (HOP-62 NSCLC): 33.2 µM
TGI (HT29 colon): 42 µM
TGI (KM20L2 colon): 39 µM
TGI (M19-MEL melanoma): 30.3 µM
TGI (NCI-H460 lung): 34.6 µM
TGI (P388 leukemia): 22.2 µM
TGI (P388/ADR leukemia): 41.9 µM
TGI (SF-295 CNS): 47.6 µM

CC(C)C(N=Cc1ccccc1O)C(=O)O (stereo unspecified)
TGI (786-0 renal): > 100 µM
TGI (COLO 205 colon): > 100 µM
TGI (HCT-15 colon): > 100 µM
TGI (HOP-62 NSCLC): > 100 µM
TGI (HS 578T breast): > 100 µM
TGI (HT29 colon): > 100 µM
TGI (NCI-H460 lung): > 100 µM
TGI (SF-295 CNS): > 100 µM

OC1CC(O)c2c(Cl)sc(Cl)c21 (stereo unspecified)
TGI (786-0 renal): > 100 µM
TGI (COLO 205 colon): 33.4 µM
TGI (HCT-15 colon): > 100 µM
TGI (HOP-62 NSCLC): 98.4 µM
TGI (HS 578T breast): 82.4 µM
TGI (HT29 colon): > 100 µM
TGI (NCI-H460 lung): 65.2 µM
TGI (SF-295 CNS): 87.3 µM

C[N+]1(C)CCC(C#N)(c2ccccc2)CC1
TGI (786-0 renal): > 100 µM
TGI (COLO 205 colon): > 100 µM
TGI (HCT-15 colon): > 100 µM
TGI (HOP-62 NSCLC): > 100 µM
TGI (HS 578T breast): > 100 µM
TGI (HT29 colon): > 100 µM
TGI (NCI-H460 lung): > 100 µM
TGI (SF-295 CNS): > 100 µM

O=C1/C(=C\c2ccc(-c3ccc(Cl)cc3Cl)o2)SC2N=C(COc3ccc(Cl)cc3)NN12 (stereo unspecified)
TGI (786-0 renal): > 100 µM
TGI (COLO 205 colon): > 100 µM
TGI (HCT-15 colon): > 100 µM
TGI (HOP-62 NSCLC): > 100 µM
TGI (HS 578T breast): 87.8 µM
TGI (HT29 colon): > 100 µM
TGI (NCI-H460 lung): > 100 µM
TGI (SF-295 CNS): > 100 µM

COc1ccc(SC(C)(SC)c2ccccn2)c(OC)n1 (stereo unspecified)
TGI (786-0 renal): > 100 µM
TGI (COLO 205 colon): > 100 µM
TGI (HCT-15 colon): > 100 µM
TGI (HOP-62 NSCLC): > 100 µM
TGI (HS 578T breast): > 100 µM
TGI (HT29 colon): > 100 µM
TGI (NCI-H460 lung): > 100 µM
TGI (SF-295 CNS): > 100 µM

CC(O)C(O)C(N)CC=O (stereo unspecified)
TGI (COLO 205 colon): > 500 µM
TGI (DLD-1 colon): > 500 µM
TGI (HCT-15 colon): > 500 µM
TGI (HOP-18 NSCLC): > 500 µM
TGI (HOP-62 NSCLC): > 500 µM
TGI (HT29 colon): > 500 µM
TGI (KM20L2 colon): > 500 µM
TGI (M19-MEL melanoma): > 500 µM
TGI (NCI-H460 lung): > 500 µM
TGI (P388 leukemia): > 500 µM
TGI (P388/ADR leukemia): > 500 µM
TGI (SF-295 CNS): > 500 µM

CN(C)Cc1ccc(C(=O)Nc2ccc3ncnc(Nc4ccc(Oc5cccc(F)c5)c(Cl)c4)c3c2)cc1
GI50 (HCT-15 colon): 1.25 µM
TGI (HCT-15 colon): 2.62 µM
GI50 (NCI-H460 lung): 1.76 µM
TGI (NCI-H460 lung): 3.31 µM
GI50 (SF-295 CNS): 1.71 µM
TGI (SF-295 CNS): 3.11 µM
